This test concerns the target T1, Pyruvate kinase M2 (PKM2) (Mus musculus, UniProt P52480).
T1 construct: gene Pkm; full length recombinant mouse PKM2 (M2 isoform; pET-28a, from pLHCX-Flag-mPKM2)
The test can be described thus: LC-MS/MS peptide mapping of the covalent adduct on recombinant PKM2; competition with biotin probe; pyruvate kinase activity assay (IC50). The class given is biochemical.

Among the data in paper PMC9461663, “Covalent Inhibition of Pyruvate Kinase M2 Reprograms Metabolic and Inflammatory Pathways in Hepatic Macrophages against Non-alcoholic Fatty Liver Disease” (International Journal of Biological Sciences, 2022) are IC50 values, retold here.

Molecules are shown by their SMILES.

The IC50 is the concentration needed to halve the response being measured.

T1 sequence (P52480 whole entry, canonical isoform): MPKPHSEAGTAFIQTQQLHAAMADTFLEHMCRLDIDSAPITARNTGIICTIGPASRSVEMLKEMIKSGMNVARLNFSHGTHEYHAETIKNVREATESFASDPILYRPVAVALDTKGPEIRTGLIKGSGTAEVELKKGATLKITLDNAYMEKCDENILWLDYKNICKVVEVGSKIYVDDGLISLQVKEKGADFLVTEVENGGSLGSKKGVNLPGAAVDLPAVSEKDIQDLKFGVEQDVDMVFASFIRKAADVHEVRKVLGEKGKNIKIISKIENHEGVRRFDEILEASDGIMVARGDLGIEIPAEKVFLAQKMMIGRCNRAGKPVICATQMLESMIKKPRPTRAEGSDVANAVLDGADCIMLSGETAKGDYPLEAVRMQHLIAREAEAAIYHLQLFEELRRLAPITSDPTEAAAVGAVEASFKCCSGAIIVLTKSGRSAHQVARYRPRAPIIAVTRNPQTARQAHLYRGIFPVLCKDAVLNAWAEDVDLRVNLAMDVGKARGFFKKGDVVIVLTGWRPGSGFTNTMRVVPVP

`CC1=C(O)C(=O)C=C2C1=CC=C1[C@@]2(C)CC[C@@]2(C)[C@@H]3C[C@](C)(C(=O)O)CC[C@]3(C)CC[C@]12C` [celastrol]: the half-inhibitory concentration (IC50) was 305 µM.
